Legend:
[1] = test system: MAP2 promoter; experiment: Notch1 inhibition / HES1 knockdown, phMAP2-2 luciferase assay in 451Lu metastatic melanoma cells; type: cell-based, human; settings: DAPT 1 or 2 μM, 0.6 μg HES1shRNA
Protocol: (§1) Transient transfection and luciferase assays: Transient transfections with various promoter constructs were performed using Lipofectamine (Invitrogen, Carlsbad, Calif.) according to the manufacturer's instructions. Cells in 24- or 6-well tissue culture dishes, in triplicates, were transfected with 0.6 or 3 μg, respectively, of empty vector pGL3 or promoter-reporter constructs (phMAP2-1, phMAP2-2, phMAP2-3 and phMAP2-4) and 0.07 or 0.5 μg Renilla luciferase plasmid pRL. In co-transfection experiments, different amounts of NeuroD and Hes1 expression plasmids were added. For Notch1 inhibition and HES1 knockdown experiments, cells were either pre-treated with indicated amount of γ-secretase inhibitor-DAPT (Calbiochem, La Jolla, Calif.) and/or transfected with indicated amount of lentiviral HES1shRNA plasmid (The RNAi Consortium collection, a library of short hairpin DNAs cloned in pLKO.1 lentiviral vector; Open biosystem, Huntsville, Ala.) 1 day before transfection with MAP2 promoter constructs. After 48 h of transfection, cells were washed with pre-chilled PBS and lysed in passive lysis buffer (Dual Luciferase kit, Promega). Firefly luciferase and Renilla luciferase activities in the cell lysates were measured according to the manufacturer's instructions using TD 20/20-luminometer (Turner Biosystems, Sunnyvale, Calif.). […]

[2] = test system: MAP2 promoter; experiment: Notch1 inhibition / HES1 knockdown, phMAP2-2 luciferase assay in WM35 primary melanoma cells; type: cell-based, human; settings: DAPT 1 or 2 μM, 0.6 μg HES1shRNA
Protocol: as §1

`C[C@H](NC(=O)Cc1cc(F)cc(F)c1)C(=O)N[C@H](C(=O)OC(C)(C)C)c1ccccc1` [DAPT] was tested, and the “MAP2 promoter activity (phMAP2-2 luciferase)” value [1] was “not sufficient to activate MAP2 promoter” and the “MAP2 promoter activity (phMAP2-2 luciferase)” value [2] was “dose-dependent increase”.

From US20080299563A1, “HUMAN MAP2 GENE PROMOTER” (priority 2007, published 2008)
